Experimental data reported in publication PMC9572621, “Fe(III) and Cu(II) Complexes of Chlorogenic Acid: Spectroscopic, Thermal, Anti-/Pro-Oxidant, and Cytotoxic Studies” (Materials, 2022).
≈ marks a conversion by molar mass, not a printed value.

Columns and labels:
[1] = MTS cell viability assay; type: cell-based; conditions: human, HaCaT keratinocyte cells, 1000 nM
[2] = cited from earlier work
[3] = tested on: Candida albicans; parameters: method as in doi:10.15199/62.2017.11.9, PMID 25209896; conditions: cited from earlier work
[4] = tested on: Staphylococcus aureus; parameters: method as in doi:10.15199/62.2017.11.9, PMID 26528244, PMID 24228999; conditions: cited from earlier work
[5] = tested on: Stenotrophomonas maltophilia; parameters: method as in doi:10.15199/62.2017.11.9, PMID 25209896; conditions: cited from earlier work
[6] = parameters: method as in PMID 29401704; conditions: compound 5 μM; cited from earlier work
[7] = radical assay not named at the place (ABTS•+/DPPH• scavenging discussed); read-out: EC50 (antioxidant); cited from earlier work
[8] = parameters: method as in PMID 15246878; conditions: read-out: IC50, inhibition of the superoxide-driven reduction of NBT by 50%; flavonoid:metal ion ratio 1:1 for complexes; cited from earlier work

O=C(/C=C/c1ccc(O)c(O)c1)O[C@@H]1C[C@](O)(C(=O)O)C[C@@H](O)[C@H]1O [5-CQA, 5-caffeoylquinic acid]
viability at 24 h, 1 µM [1]: 101 ± 4.5%
pKa1 (COOH) [2]: 3.35
pKa2 [2]: 8.30
pKa3 (OH in the meta position) [2]: 12.06
MIC [3]: 80 µg/mL (≈ 226 µM)
MIC [4]: 500 µg/mL (≈ 1410 µM)
activity against Stenotrophomonas maltophilia [5]: shows activity

O=C(C=Cc1ccc(O)c(O)c1)OC1CC(O)(C(=O)[O-])CC(O)C1O.[Li+] (stereo not shown) [CQA/Li]
FRAP activity [6]: 106.92 µM Fe^2+

O=C1O[C@H]([C@@H](O)CO)C(O)=C1O [L-ascorbic acid]
EC50 [7]: 10.3 ± 0.98 µM

C[C@@H]1O[C@@H](OC[C@H]2O[C@@H](Oc3c(-c4ccc(O)c(O)c4)oc4cc(O)cc(O)c4c3=O)[C@H](O)[C@@H](O)[C@@H]2O)[C@H](O)[C@H](O)[C@H]1O [rutin]
IC50 [8]: 9 µM
